Measurements from US7503965B2, “Azo compound, ink composition, and colored object” (Nippon Kayaku Kabushiki Kaisha, priority 2004, dated 2009).

assay: solubility in water (ammonia alkali) by filter paper spot; assay type: physicochemical; conditions: aqueous buffer

SMILES | solubility
Nc1c(N=Nc2ccc3c(O)c(N=Nc4cc(S(=O)(=O)O)c(N=Nc5c(C(=O)O)nn(-c6ccc(S(=O)(=O)O)cc6)c5O)cc4S(=O)(=O)O)c(S(=O)(=O)O)cc3c2S(=O)(=O)O)cc(S(=O)(=O)O)c2cc(S(=O)(=O)O)c(N=Nc3ccc([N+](=O)[O-])cc3S(=O)(=O)O)c(O)c12 [compound 9] | ≥ 100 mg/mL
Nc1c(N=Nc2ccc3c(O)c(N=Nc4ccc(N=Nc5c(C(=O)O)nn(-c6ccc(S(=O)(=O)O)cc6)c5O)c(S(=O)(=O)O)c4)c(S(=O)(=O)O)cc3c2S(=O)(=O)O)cc(S(=O)(=O)O)c2cc(S(=O)(=O)O)c(N=Nc3ccc([N+](=O)[O-])cc3S(=O)(=O)O)c(O)c12 [compound 1] | ≥ 100 mg/mL
Nc1c(N=Nc2ccc3c(O)c(N=Nc4cc(C(=O)O)c(N=Nc5c(C(=O)O)nn(-c6ccc(S(=O)(=O)O)cc6)c5O)c(S(=O)(=O)O)c4)c(S(=O)(=O)O)cc3c2S(=O)(=O)O)cc(S(=O)(=O)O)c2cc(S(=O)(=O)O)c(N=Nc3ccc([N+](=O)[O-])cc3S(=O)(=O)O)c(O)c12 [compound 26] | ≥ 100 mg/mL
Nc1c(N=Nc2ccc3c(O)c(N=Nc4cc(Cl)c(N=Nc5c(C(=O)O)nn(-c6ccc(S(=O)(=O)O)cc6)c5O)c(S(=O)(=O)O)c4)c(S(=O)(=O)O)cc3c2S(=O)(=O)O)cc(S(=O)(=O)O)c2cc(S(=O)(=O)O)c(N=Nc3ccc([N+](=O)[O-])cc3S(=O)(=O)O)c(O)c12 [compound 25] | ≥ 100 mg/mL
COc1cc([N+](=O)[O-])c(S(=O)(=O)O)cc1N=Nc1c(S(=O)(=O)O)cc2c(S(=O)(=O)O)cc(N=Nc3ccc4c(O)c(N=Nc5ccc(N=Nc6c(C(=O)O)nn(-c7ccc(S(=O)(=O)O)cc7)c6O)c(S(=O)(=O)O)c5)c(S(=O)(=O)O)cc4c3S(=O)(=O)O)c(N)c2c1O [compound 24] | ≥ 100 mg/mL
Nc1c(N=Nc2ccc3c(O)c(N=Nc4ccc(S(=O)(=O)O)c(/N=N/c5c(C(=O)O)nn(-c6ccc(S(=O)(=O)O)cc6)c5O)c4)c(S(=O)(=O)O)cc3c2S(=O)(=O)O)cc(S(=O)(=O)O)c2cc(S(=O)(=O)O)c(N=Nc3ccc([N+](=O)[O-])cc3S(=O)(=O)O)c(O)c12 [compound 13] | ≥ 100 mg/mL
Nc1c(N=Nc2ccc3c(O)c(N=Nc4ccc(N=Nc5c(C(=O)O)nn(-c6ccc(S(=O)(=O)O)cc6)c5O)c(S(=O)(=O)O)c4)c(S(=O)(=O)O)cc3c2S(=O)(=O)O)cc(S(=O)(=O)O)c2cc(S(=O)(=O)O)c(N=Nc3ccc(S(=O)(=O)O)cc3[N+](=O)[O-])c(O)c12 [compound 22] | ≥ 100 mg/mL
Nc1c(N=Nc2ccc3c(O)c(N=Nc4ccc(N=Nc5c(C(=O)O)nn(-c6cc(S(=O)(=O)O)ccc6S(=O)(=O)O)c5O)c(S(=O)(=O)O)c4)c(S(=O)(=O)O)cc3c2S(=O)(=O)O)cc(S(=O)(=O)O)c2cc(S(=O)(=O)O)c(N=Nc3ccc([N+](=O)[O-])cc3S(=O)(=O)O)c(O)c12 [compound 21] | ≥ 100 mg/mL
Nc1c(N=Nc2ccc3c(O)c(N=Nc4cc(S(=O)(=O)O)c(N=Nc5c(C(=O)O)nn(-c6ccc(S(=O)(=O)O)cc6)c5O)cc4S(=O)(=O)O)c(S(=O)(=O)O)cc3c2S(=O)(=O)O)cc(S(=O)(=O)O)c2cc(S(=O)(=O)O)c(N=Nc3ccc(S(=O)(=O)O)cc3[N+](=O)[O-])c(O)c12 [compound 23] | ≥ 100 mg/mL
Nc1c(N=Nc2ccc3c(O)c(N=Nc4ccc(N=Nc5c(C(=O)O)nn(-c6cc(C(=O)O)cc(C(=O)O)c6)c5O)c(S(=O)(=O)O)c4)c(S(=O)(=O)O)cc3c2S(=O)(=O)O)cc(S(=O)(=O)O)c2cc(S(=O)(=O)O)c(N=Nc3ccc([N+](=O)[O-])cc3S(=O)(=O)O)c(O)c12 [compound 27] | ≥ 100 mg/mL
